These results are taken from patent publication US12084458B2, “Substituted pyridines, pyridazines, and pyrimidines as TYK2 inhibitors” (Sudo Biosciences Limited, priority 2021, dated 2024).

What all share (assay type): cell-based
The subject of test [1] is HEK-Blue IL-23 cells (IL-23-stimulated STAT3 SEAP reporter; TYK2 JH2). The experiment in a line: HEK-Blue IL-23 SEAP reporter assay for profiling TYK2 pseudokinase (JH2) inhibition. Conditions: 10 ng/mL human recombinant IL-23, SEAP reporter, read-out: IL23 (TYK2 inhibitory activity, IC50). How it is done: (§1) Example B-1: HEK-Blue™ IL-23 and IFNα/β Reporter Assays for Profiling TYK2 Pseudokinase (JH2) Inhibition
(§2) HEK-Blue™ IL-23 and IFNα/β cells with a stably-integrated cytokine receptor and STAT3 or STAT1 express STAT-inducible secreted embryonic alkaline phosphatase (SEAP) reporter gene upon cytokine stimulation. These cells are plated in DMEM (Gibco) containing 10% heat-inactivated FBS (Gibco) and 100 U/mL PenStrep (Gibco) at 37° C. under 5% CO2 conditions for 20-22 hours. The cells are then pretreated with serially diluted test compounds for 60 min prior to stimulation with either 10 ng/mL human recombinant IL-23 (Miltenyl Biotech) or 1 ng/mL human recombinant IFNα (InvivoGen) for 22-24 hours for IL-23 or 16-18 h for IFNα. SEAP induction is measured using the QUANTI Blue™ Solution (InvivoGen) according to the manufacturer's instructions.
For orientation: In a reporter assay the amount or activity of a reporter protein is the signal.

The test system of test [2] is HEK-Blue IL-2 reporter cells (IL-2-stimulated STAT5 SEAP reporter). Put plainly: HEK-Blue IL-2 SEAP reporter assay for determining selectivity. Conditions: 4 ng/mL human recombinant IL-2. Here is the method: (§3) Example B-3: HEK-Blue™ IL-2 and IFNγ Reporter Assays for Determining Selectivity
(§4) HEK-Blue™ IL-2 and IFNγ reporter cells with a stably-integrated cytokine receptor and STAT5 or STAT1 express STAT-inducible secreted embryonic alkaline phosphatase (SEAP) reporter gene upon cytokine stimulation. These cells were plated in DMEM (Gibco) containing 10% heat-inactivated FBS (Gibco) and 100 U/mL PenStrep (Gibco) at 37° C. under 5% CO2 conditions for 20-22 hours. The cells were then pretreated with serially diluted test compounds for 60 min prior to stimulation with either 4 ng/mL human recombinant IL-2 (Miltenyl Biotech) or 50 ng/mL human recombinant IFNγ (InvivoGen) for 24 hours. SEAP induction was measured using the QUANTI-Blue™ Solution (InvivoGen) according to the manufacturer's instructions.

Test [3] deals with HEK-Blue IFNγ reporter cells (IFNγ-stimulated STAT1 SEAP reporter). Put plainly: HEK-Blue IFNγ SEAP reporter assay for determining selectivity. Conditions: Homo sapiens, HEK-Blue, 50 ng/mL human recombinant IFNγ, read-out: IFN-γ (SEAP selectivity, IC50). Here is the method: as §3, §4
The subject of test [4] is HEK-Blue IFNα/β cells (IFNα-stimulated STAT1 SEAP reporter; TYK2 JH2). The experiment in a line: HEK-Blue IFNα/β SEAP reporter assay for profiling TYK2 pseudokinase (JH2) inhibition. More on the design: IFNα (TYK2 inhibitory activity, IC50): scale not given here. Conditions: 1 ng/mL human recombinant IFNα; for IC50: Homo sapiens, HEK-Blue, read-out: IFNα (TYK2 inhibitory activity, IC50). Here is the method: as §1, §2

Regarding `[2H]C([2H])([2H])NC(=O)c1cnc(NC(=O)N(C)C)cc1Nc1cccc2c1N(C)Cc1nn(C)nc1-2` [Compound 51, 4-((2,5-dimethyl-4,5-dihydro-2H-[1,2,3]triazolo[4,5-c]quinolin-6-yl)amino)-6-(3,3-dimethylureido)-N-(methyl-d3)nicotinamide], the concentration for half-maximal inhibition (IC50) in test [1] is < 30 nM; in test [2] it was > 1000 nM.

As for `[2H]C([2H])([2H])NC(=O)c1cnc(NC(=O)C2CC2)cc1Nc1cccc2c1N(C)[C@@H](C)c1nn(C)nc1-2` (single isomer, unassigned) [Compound 57], the IC50 is > 1000 nM in test [3], < 30 nM in test [4], < 30 nM in test [1] and > 1000 nM in test [2].

Regarding `[2H]C([2H])([2H])NC(=O)c1nnc(Nc2cc(C)nc(C)n2)cc1Nc1cccc2c1N(C)Cc1nc(C)nn1-2` [Compound 15, 4-((2,5-dimethyl-4,5-dihydro-[1,2,4]triazolo[1,5-a]quinoxalin-6-yl)amino)-6-((2,6-dimethylpyrimidin-4-yl)amino)-N-(methyl-d3)pyridazine-3-carboxamide], the 50% inhibitory concentration (IC50) is < 30 nM in test [3], < 30 nM in test [4], < 30 nM in test [1] and 300 to 1000 nM in test [2].

For `[2H]C([2H])([2H])NC(=O)c1nnc(NC(=O)[C@@H]2CC2(F)F)cc1Nc1nccc2c1N(C)Cc1nn(C)nc1-2` [Compound 68, (S)-6-(2,2-difluorocyclopropane-1-carboxamido)-4-((2,5-dimethyl-4,5-dihydro-2H-[1,2,3]triazolo[4,5-c][1,7]naphthyridin-6-yl)amino)-N-(methyl-d3)pyridazine-3-carboxamide], the IC50 was 300 to 1000 nM in test [3], < 30 nM in test [4], < 30 nM in test [1] and > 1000 nM in test [2].

Take `[2H]C([2H])([2H])NC(=O)c1nnc(NC(=O)C2CC2)cc1Nc1cc(F)cc2c1N(C)[C@@H](C)c1nc(C)nn1-2` (single isomer, unassigned) [Compound 111]: the IC50 in test [3] is > 1000 nM; in test [4], 30 to 300 nM; in test [1] it was < 30 nM; in test [2] it was > 1000 nM.

For the compound `[2H]C([2H])([2H])NC(=O)c1cnc(NC(=O)C2CC2)cc1Nc1ccnc2c1N(C)Cc1nc(C)nn1-2` [Compound 86, 6-(cyclopropanecarboxamido)-4-((2,5-dimethyl-4,5-dihydropyrido[3,2-e][1,2,4]triazolo[1,5-a]pyrazin-6-yl)amino)-N-(methyl-d3)nicotinamide], the half-inhibitory concentration (IC50) in test [4] was 300 to 1000 nM; in test [1], 30 to 300 nM.

In the case of `[2H]C([2H])([2H])NC(=O)c1nnc(NC(=O)N(C)C)cc1Nc1cccc2c1N(C)Cc1nc(C)nn1-2` [Compound 20, 4-((2,5-dimethyl-4,5-dihydro-[1,2,4]triazolo[1,5-a]quinoxalin-6-yl)amino)-6-(3,3-dimethylureido)-N-(methyl-d3)pyridazine-3-carboxamide], the IC50 was > 1000 nM in test [4] and 30 to 300 nM in test [1].

As to `[2H]C([2H])([2H])NC(=O)c1nnc(NC(=O)[C@@H]2CC2(F)F)cc1Nc1cccc2c1N(C)Cc1nc(C)nn1-2` [Compound 41, (S)-6-(2,2-difluorocyclopropane-1-carboxamido)-4-((2,5-dimethyl-4,5-dihydro-[1,2,4]triazolo[1,5-a]quinoxalin-6-yl)amino)-N-(methyl-d3)pyridazine-3-carboxamide], the IC50 in test [4] and in test [1] was 30 to 300 nM in each case.

On to `[2H]C([2H])([2H])NC(=O)c1nnc(NC(=O)C2CC2)cc1Nc1nccc2c1N(C)[C@@H](C)c1nc(C)nn1-2` [Compound 112, (S)-6-(cyclopropanecarboxamido)-N-(methyl-d3)-4-((2,4,5-trimethyl-4,5-dihydropyrido[3,4-e][1,2,4]triazolo[1,5-a]pyrazin-6-yl)amino)pyridazine-3-carboxamide], for which the half-maximal inhibitory concentration (IC50) in test [4] was 30 to 300 nM; in test [1], < 30 nM.

For `[2H]C([2H])([2H])NC(=O)c1nnc(NC(=O)C2CC2)cc1Nc1cc(F)cc2c1N(C)[C@H](C)c1nc(C)nn1-2` (single isomer, unassigned) [Compound 109], the half-maximal inhibitory concentration (IC50) lay within 300 to 1000 nM in test [4] and 30 to 300 nM in test [1].

With `[2H]C([2H])([2H])NC(=O)c1cnc(NC(=O)C2CC2)c(F)c1Nc1cccc2c1N(C)Cc1nn(C)nc1-2` [Compound 65, 6-(cyclopropanecarboxamido)-4-((2,5-dimethyl-4,5-dihydro-2H-[1,2,3]triazolo[4,5-c]quinolin-6-yl)amino)-5-fluoro-N-(methyl-d3)nicotinamide], the “IFNα (TYK2 inhibitory activity, IC50)” value in test [4] was “C/D”. The IC50 in test [1] was 300 to 1000 nM.

Consider `[2H]C([2H])([2H])NC(=O)c1cnc(Nc2ccc(F)cn2)cc1Nc1cccc2c1N(C)Cc1nc(C)nn1-2` [Compound 27, 4-((2,5-dimethyl-4,5-dihydro-[1,2,4]triazolo[1,5-a]quinoxalin-6-yl)amino)-6-((5-fluoropyridin-2-yl)amino)-N-(methyl-d3)nicotinamide], for which the IC50 in test [3] is 300 to 1000 nM; in test [1], < 30 nM; in test [2] it was > 1000 nM.

As for `[2H]C([2H])([2H])NC(=O)c1cnc(N(C)C(=O)C2CC2)cc1Nc1cccc2c1N(C)Cc1nc(C)nn1-2` [Compound 82, 4-((2,5-dimethyl-4,5-dihydro-[1,2,4]triazolo[1,5-a]quinoxalin-6-yl)amino)-N-(methyl-d3)-6-(N-methylcyclopropanecarboxamido)nicotinamide], the concentration for half-maximal inhibition (IC50) in test [4] and in test [1] was > 1000 nM each time.

For `[2H]C([2H])([2H])NC(=O)c1nnc(NC(=O)CN2CCOCC2)cc1Nc1cccc2c1N(C)Cc1nc(C)nn1-2` [Compound 9, 4-((2,5-dimethyl-4,5-dihydro-[1,2,4]triazolo[1,5-a]quinoxalin-6-yl)amino)-N-(methyl-d3)-6-(2-morpholinoacetamido)pyridazine-3-carboxamide], the “IFNα (TYK2 inhibitory activity, IC50)” value in test [4] was “C/D”. Also, the IC50 in test [1] was in the range of 30 to 300 nM.

For the compound `[2H]C([2H])([2H])NC(=O)c1nnc(NC(=O)NC)cc1Nc1nccc2c1N(C)[C@H](C)c1nn(C)nc1-2` (single isomer, unassigned) [Compound 99], the IC50 in test [4] and in test [1] was 30 to 300 nM throughout.

For `[2H]C([2H])([2H])NC(=O)Nc1cc(Nc2cccc3c2N(C)Cc2nn(C)nc2-3)c(C(=O)NC([2H])([2H])[2H])cn1` [Compound 67, 4-((2,5-dimethyl-4,5-dihydro-2H-[1,2,3]triazolo[4,5-c]quinolin-6-yl)amino)-N-(methyl-d3)-6-(3-(methyl-d3)ureido)nicotinamide], the values for the IC50 in test [4], in test [1] and in test [2] were < 30 nM, < 30 nM and > 1000 nM, respectively.

`[2H]C([2H])([2H])NC(=O)c1nnc(NC(=O)CN(C)C)cc1Nc1cccc2c1N(C)Cc1nc(C)nn1-2` [Compound 14, 4-((2,5-dimethyl-4,5-dihydro-[1,2,4]triazolo[1,5-a]quinoxalin-6-yl)amino)-6-(2-(dimethylamino)acetamido)-N-(methyl-d3)pyridazine-3-carboxamide]: the IC50 in test [4] was 300 to 1000 nM; in test [1], 30 to 300 nM.

With `[2H]C([2H])([2H])NC(=O)c1nnc(NC(=O)C2CC2)cc1Nc1cccc2c1N(C)[C@@H](C([2H])([2H])[2H])c1nc(C)nn1-2` [Compound 43, (S)-6-(cyclopropanecarboxamido)-4-((2,5-dimethyl-4-(methyl-d3)-4,5-dihydro-[1,2,4]triazolo[1,5-a]quinoxalin-6-yl)amino)-N-(methyl-d3)pyridazine-3-carboxamide], the concentration for half-maximal inhibition (IC50) in test [4] was 300 to 1000 nM; in test [1] it was 30 to 300 nM.

For `[2H]C([2H])([2H])NC(=O)c1cnc(NC(=O)C2CC2)nc1Nc1cccc2c1N(C)Cc1nc(C)nn1-2` [Compound 21, 2-(cyclopropanecarboxamido)-4-((2,5-dimethyl-4,5-dihydro-[1,2,4]triazolo[1,5-a]quinoxalin-6-yl)amino)-N-(methyl-d3)pyrimidine-5-carboxamide], the IC50 in test [4] and in test [1] was 30 to 300 nM throughout.

Regarding `CNC(=O)c1nnc(NC(=O)C2CC2)cc1Nc1cccc2c1OCc1nc(CO)nn1-2` [Compound 3, 6-(cyclopropanecarboxamido)-4-((2-(hydroxymethyl)-4H-benzo[b][1,2,4]triazolo[1,5-d][1,4]oxazin-6-yl)amino)-N-methylpyridazine-3-carboxamide], the concentration for half-maximal inhibition (IC50) in test [4] and in test [1] was > 1000 nM throughout.

What is called IC50 is the concentration at which inhibition is half-maximal.
